According to patent publication US20090312380A1, “NOVEL COMPOSITIONS AND METHODS” (priority 2006, published 2009):
Values belong to the compound of their own block, whether it stands above or below them.

Legend:
[1] = Gravimetric vapour sorption (GVS), water vapour adsorption; format: physicochemical; settings: for water vapour adsorption (comparison): GVS, compared with samples B or C
Text: GVS is a method traditionally used to detect quantitative weight changes of samples as a function of the relative humidity (RH). Samples, which can comprise solid-state samples such as powders and tablets, but also liquids, are exposed to a defined humidity profile. The corresponding weight change is continuously recorded via an ultra-microbalance. Defined humidity levels are established by mixing defined ratios of a dry carrier gas, usually nitrogen, and a wet stream, typically a water vapour saturated carrier gas such as nitrogen. The RH level is then controlled by the ratio of the dry:wet stream. To maintain isothermal conditions, the GVS apparatus which comprises a microbalance and humidification unit is set up in an incubator system held at a defined temperature. The primary information obtained by a typical commercial GVS system is: • Kinetics of water uptake: • The kinetic of the water uptake is a mass vs. time plot at constant RH level. The equilibrium between sample and humidity can be determined from this information. • Sorption isotherms: • The equilibrium weight changes at each humidity are related to the dry mass of the sample (i.e. the equilibrium mass at 0% RH). The equilibrium weight changes as a function of the RH level are the corresponding sorption isotherms of the sample. Typical sorption isotherms comprise adsorption, i.e. increasing RH levels, and desorption, i.e. decreasing RH levels, cycles. Typically, RH ranges from 0-95% RH are covered. For this purpose, water vapour sorption experiments can be carried out as follows: • Adsorption segment range 0-98% RH, preferably 0-50% RH. • Adsorption segment RH-step size of 10% RH or smaller, preferably 5% RH or 2.5% RH. • Desorption segment range 98-0% RH, preferably 50-0% RH. • Desorption segment RH-step size of 10% RH or smaller, preferably 5% RH or 2.5% RH. • Equilibration times at each humidity of 15 minutes and longer, preferably 30 minutes and longer, most preferably 60 minutes and longer. The important factor here is that all water vapour sorption uptakes used for further evaluation do reach equilibrium, i.e. that the weight change over time within each RH-step kinetic should be very small at the end of each RH segment. For these purposes, typical equilibration times are given. • Isothermal temperature in the range 5-50° C., preferably 25-37° C., most preferably about 25° C. • Sample masses of 10-50 mg, preferably 15-50 mg. […] Compression/compaction of the sample should be avoided in order to ensure that there are enough voids in any powder sample to allow the water vapour to penetrate. From these experiments, the primary information obtained is the sorption kinetic (mass vs. time at constant humidity) as well as the conventional sorption isotherm (weight change related to dry value vs. RH level), as previously described. The four samples A-D of irbesartan were also subjected to GVS to assess the extent of any water adsorption. […] The water adsorption results obtained from the GVS analysis are illustrated in Table 3.

[2] = Powder dissolution in 0.1N HCl (37° C.); format: physicochemical; settings: for dissolution characteristics: 0.1N HCl, 37° C., FIG. 4, compared with samples B and C; for dissolution kinetics: in the media, FIGS. 4 and 5
Protocol: FIG. 4: Powder dissolution profiles in 0.1N HCl (37° C.) of samples of irbesartan. Dissolution experiments were executed in 0.1N HCt (37° C.) on the four micronised samples A-D of irbesartan. […] Thus with all other parameters being equal, it can be seen that the improved dissolution profile directly correlates to the increased water surface area of samples A and D.

Water Adsorption ([1]; 5 % RH): 0.03 wt %
Water Adsorption ([1]; 10 % RH): 0.04 wt %
Water Adsorption ([1]; 15 % RH): 0.06 wt %
Water Adsorption ([1]; 20 % RH): 0.07 wt %
Water Adsorption ([1]; 25 % RH): 0.09 wt %
Water Adsorption ([1]; 30 % RH): 0.10 wt %
Water Adsorption ([1]; 35 % RH): 0.11 wt %
Water Adsorption ([1]; 40 % RH): 0.13 wt %
Water Adsorption ([1]; 50 % RH): 0.15 wt %
Water Adsorption ([1]; 60 % RH): 0.18 wt %
Water Adsorption ([1]; 70 % RH): 0.20 wt %
Water Adsorption ([1]; 80 % RH): 0.23 wt %
Water Adsorption ([1]; 90 % RH): 0.28 wt %
dissolution profile ([2]; compared with samples A and D): significantly poorer dissolution profile
SMILES: CCCCC1=NC2(CCCC2)C(=O)N1Cc1ccc(-c2ccccc2-c2nnn[nH]2)cc1 [Sample B, irbesartan]

Water Adsorption ([1]; 5 % RH): 0.07 wt %
Water Adsorption ([1]; 10 % RH): 0.10 wt %
Water Adsorption ([1]; 15 % RH): 0.13 wt %
Water Adsorption ([1]; 20 % RH): 0.16 wt %
Water Adsorption ([1]; 25 % RH): 0.19 wt %
Water Adsorption ([1]; 35 % RH): 0.23 wt %
Water Adsorption ([1]; 40 % RH): 0.26 wt %
Water Adsorption ([1]; 50 % RH): 0.33 wt %
Water Adsorption ([1]; 60 % RH): 0.39 wt %
Water Adsorption ([1]; 70 % RH): 0.46 wt %
Water Adsorption ([1]; 80 % RH): 0.52 wt %
Water Adsorption ([1]; 90 % RH): 0.63 wt %
water vapour adsorption (comparison) [1]: greater water vapour adsorption
dissolution characteristics [2]: enhanced dissolution characteristics
SMILES: CCCCC1=NC2(CCCC2)C(=O)N1Cc1ccc(-c2ccccc2-c2nnn[nH]2)cc1 [Sample D, irbesartan]
dissolution kinetics [2]: significantly faster dissolution kinetics

Water Adsorption ([1]; 5 % RH): 0.06 wt %
Water Adsorption ([1]; 10 % RH): 0.09 wt %
Water Adsorption ([1]; 15 % RH): 0.12 wt %
Water Adsorption ([1]; 20 % RH): 0.14 wt %
Water Adsorption ([1]; 25 % RH): 0.17 wt %
Water Adsorption ([1]; 30 % RH): 0.20 wt %
Water Adsorption ([1]; 35 % RH): 0.22 wt %
Water Adsorption ([1]; 40 % RH): 0.24 wt %
Water Adsorption ([1]; 50 % RH): 0.29 wt %
Water Adsorption ([1]; 60 % RH): 0.34 wt %
Water Adsorption ([1]; 70 % RH): 0.39 wt %
Water Adsorption ([1]; 80 % RH): 0.44 wt %
Water Adsorption ([1]; 90 % RH): 0.52 wt %
water vapour adsorption (comparison) [1]: greater water vapour adsorption
Rel. adsorbed amount n ([1]; RH 0.33 %): 0.0258 wt %
Abs. adsorbed amount n ([1]; RH 4.98 %): 0.0110 mg
Rel. adsorbed amount n ([1]; RH 4.98 %): 0.0592 wt %
Abs. adsorbed amount n ([1]; RH 10.01 %): 0.0166 mg
Rel. adsorbed amount n ([1]; RH 10.01 %): 0.0894 wt %
Abs. adsorbed amount n ([1]; RH 15.00 %): 0.0219 mg
Rel. adsorbed amount n ([1]; RH 15.00 %): 0.1179 wt %
Abs. adsorbed amount n ([1]; RH 19.99 %): 0.0265 mg
Rel. adsorbed amount n ([1]; RH 19.99 %): 0.1427 wt %
Abs. adsorbed amount n ([1]; RH 25.02 %): 0.0320 mg
Rel. adsorbed amount n ([1]; RH 25.02 %): 0.1723 wt %
Abs. adsorbed amount n ([1]; RH 30.00 %): 0.0369 mg
Rel. adsorbed amount n ([1]; RH 30.00 %): 0.1987 wt %
Rel. adsorbed amount n ([1]; RH 34.98 %): 0.2207 wt %
Rel. adsorbed amount n ([1]; RH 40.02 %): 0.2439 wt %
Rel. adsorbed amount n ([1]; RH 49.98 %): 0.2902 wt %
Rel. adsorbed amount n ([1]; RH 60.00 %): 0.3392 wt %
Rel. adsorbed amount n ([1]; RH 70.02 %): 0.3855 wt %
Rel. adsorbed amount n ([1]; RH 79.99 %): 0.4372 wt %
Rel. adsorbed amount n ([1]; RH 90.01 %): 0.5152 wt %
Rel. adsorbed amount n ([1]; RH 93.03 %): 0.5233 wt %
dissolution characteristics [2]: enhanced dissolution characteristics
SMILES: CCCCC1=NC2(CCCC2)C(=O)N1Cc1ccc(-c2ccccc2-c2nnn[nH]2)cc1 [Sample A, irbesartan]
dissolution kinetics [2]: significantly faster dissolution kinetics

Water Adsorption ([1]; 5 % RH): 0.04 wt %
Water Adsorption ([1]; 10 % RH): 0.07 wt %
Water Adsorption ([1]; 15 % RH): 0.08 wt %
Water Adsorption ([1]; 20 % RH): 0.09 wt %
Water Adsorption ([1]; 25 % RH): 0.11 wt %
Water Adsorption ([1]; 30 % RH): 0.13 wt %
Water Adsorption ([1]; 35 % RH): 0.14 wt %
Water Adsorption ([1]; 40 % RH): 0.15 wt %
Water Adsorption ([1]; 50 % RH): 0.18 wt %
Water Adsorption ([1]; 60 % RH): 0.21 wt %
Water Adsorption ([1]; 70 % RH): 0.23 wt %
Water Adsorption ([1]; 80 % RH): 0.27 wt %
Water Adsorption ([1]; 90 % RH): 0.31 wt %
SMILES: CCCCC1=NC2(CCCC2)C(=O)N1Cc1ccc(-c2ccccc2-c2nnn[nH]2)cc1 [Sample C, irbesartan]
